Results on 25 molecules are retold here after US20200016159A1, “N3-CYCLICALLY SUBSTITUTED THIENOURACILS AND USE THEREOF” (Bayer Aktiengesellschaft, priority 2016, published 2020).

This assay has as its target T1, human adenosine A2b receptor (Homo sapiens, UniProt P29275).
T1 sequence (P29275 1-332): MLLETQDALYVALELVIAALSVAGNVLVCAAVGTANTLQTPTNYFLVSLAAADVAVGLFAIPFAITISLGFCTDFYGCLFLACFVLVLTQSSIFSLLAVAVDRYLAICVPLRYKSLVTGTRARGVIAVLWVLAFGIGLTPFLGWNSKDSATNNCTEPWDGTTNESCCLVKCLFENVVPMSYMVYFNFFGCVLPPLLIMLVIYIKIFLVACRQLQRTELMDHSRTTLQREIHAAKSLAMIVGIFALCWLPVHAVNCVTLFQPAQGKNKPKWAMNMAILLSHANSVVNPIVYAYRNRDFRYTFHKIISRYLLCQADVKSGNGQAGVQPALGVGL
Nature of the assay: Cellular in vitro reporter gene test for A2b receptor activity (antagonism of NECA). The assay is classed as cell-based. Set-up: expressed in transfected cells; host or cells: CHO-K1 (Chinese hamster ovary) with CRE-luciferase reporter. Conditions: recombinant CHO-K1 cells, CRE-luciferase reporter, co-incubation with EC50 concentration of NECA, 3 hours. The procedure, abridged: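 CHO-K1 cells expressing recombinant human A2b receptor plus a CRE-driven firefly luciferase reporter. Compounds co-incubated with NECA at its same-day EC50 concentration; luminescence read 3 hours after NECA addition. IC50 values, sometimes means of several determinations rounded to two significant figures.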
Background: In a reporter assay the amount or activity of a reporter protein is the signal.
As to `Cc1c(Cn2[nH]ccc2=O)sc2c1c(=O)n(C1CC1C)c(=O)n2CCOC(F)(F)F` (racemic) [Example 273, 5-Methyl-3-(2-methylcyclopropyl)-6-[(5-oxo-2,5-dihydro-1H-pyrazol-1-yl)methyl]-1-[2-(trifluoromethoxy)ethyl]thieno[2,3-d]pyrimidine-2,4(1H,3H)-dione], the IC50 (in general, the concentration needed to halve the response being measured) was 67 nM.

For the molecule `Cc1c(Cn2nc[nH]c2=O)sc2c1c(=O)n(C1CC3(CCC3)C1)c(=O)n2CCC(F)(F)F` [Example 178, 5-Methyl-6-[(5-oxo-4,5-dihydro-1H-1,2,4-triazol-1-yl)methyl]-3-(spiro[3.3]hept-2-yl)-1-(3,3,3-trifluoropropyl)thieno[2,3-d]pyrimidine-2,4(1H,3H)-dione], the IC50 was determined as 26 nM. In the case of `CO[C@H]1C[C@@H](n2c(=O)c3c(C)c(Cn4nc[nH]c4=O)sc3n(CCC(F)(F)F)c2=O)C1` [Example 158, 3-(cis-3-Methoxycyclobutyl)-5-methyl-6-[(5-oxo-4,5-dihydro-1H-1,2,4-triazol-1-yl)methyl]-1-(3,3,3-trifluoropropyl)thieno[2,3-d]pyrimidine-2,4(1H,3H)-dione] it was 180 nM. With `Cc1c(Cn2nc[nH]c2=O)sc2c1c(=O)n(C1(C)CC1)c(=O)n2CCOC(C)C` [Example 80, 1-(2-Isopropoxyethyl)-5-methyl-3-(1-methylcyclopropyl)-6-[(5-oxo-4,5-dihydro-H-1,2,4-triazol-1-yl)methyl]thieno[2,3-d]pyrimidine-2,4(1H,3H)-dione] the figure was 740 nM; with `Cc1c(CN2CCNC2=O)sc2c1c(=O)n(C1CCC1)c(=O)n2CCC(F)(F)F` [Example 110, 3-Cyclobutyl-5-methyl-6-[(2-oxoimidazolidin-1-yl)methyl]-1-(3,3,3-trifluoropropyl)thieno[2,3-d]pyrimidine-2,4(1H,3H)-dione], 0.59 nM; with `Cc1c(Cn2[nH]ccc2=O)sc2c1c(=O)n(C1(C)CC1)c(=O)n2CCC(F)(F)F` [Example 215, 5-Methyl-3-(1-methylcyclopropyl)-6-[(5-oxo-2,5-dihydro-1H-pyrazol-1-yl)methyl]-1-(3,3,3-trifluoropropyl)thieno[2,3-d]pyrimidine-2,4(1H,3H)-dione], 73 nM. With `COCCn1c(=O)n([C@H]2C[C@H](OC)C2)c(=O)c2c(C)c(CN3CCNC(=O)C3=O)sc21` [Example 152, 6-[(2,3-Dioxopiperazin-1-yl)methyl]-3-(trans-3-methoxycyclobutyl)-1-(2-methoxyethyl)-5-methylthieno[2,3-d]pyrimidine-2,4(1H,3H)-dione] the figure was 340 nM; with `COCCn1c(=O)n(C2CC2C)c(=O)c2c(C)c(CN3CCNC3=O)sc21` (single isomer, unassigned) [Example 259, 1-(2-Methoxyethyl)-5-methyl-3-(2-methylcyclopropyl)-6-[(2-oxoimidazolidin-1-yl)methyl]thieno[2,3-d]pyrimidine-2,4(1H,3H)-dione], 4.1 nM. Regarding `COCCn1c(=O)n(C2CC(C)(C)C2)c(=O)c2c(C)c(CN3CCNC(=O)C3=O)sc21` [Example 172, 3-(3,3-Dimethylcyclobutyl)-6-[(2,3-dioxopiperazin-1-yl)methyl]-1-(2-methoxyethyl)-5-methylthieno[2,3-d]pyrimidine-2,4(1H,3H)-dione], the IC50 amounted to 36 nM. As to `COCCn1c(=O)n(C2CC2(C)C)c(=O)c2c(C)c(CN3CCNC3=O)sc21` (racemic) [Example 103, 3-(2,2-Dimethylcyclopropyl)-1-(2-methoxyethyl)-5-methyl-6-[(2-oxoimidazolidin-1-yl)methyl]thieno[2,3-d]pyrimidine-2,4(1H,3H)-dione], the IC50 was 21 nM. With `Cc1c(Cn2nc[nH]c2=O)sc2c1c(=O)n(C1CC1C)c(=O)n2CCOC(F)(F)F` (single isomer, unassigned) [Example 277, 5-Methyl-3-(2-methylcyclopropyl)-6-[(5-oxo-4,5-dihydro-1H-1,2,4-triazol-1-yl)methyl]-1-[2-(trifluoromethoxy)ethyl]thieno[2,3-d]pyrimidine-2,4(1H,3H)-dione] the figure was 3.9 nM; with `Cc1c(Cn2nc[nH]c2=O)sc2c1c(=O)n(C1CC1)c(=O)n2CC#N` [Example 23, {3-Cyclopropyl-5-methyl-2,4-dioxo-6-[(5-oxo-4,5-dihydro-1H-1,2,4-triazol-1-yl)methyl]-3,4-dihydrothieno[2,3-d]pyrimidin-1 (2H)-yl}acetonitrile], 130 nM; with `Cc1c(CN2CCNC2=O)sc2c1c(=O)n(C1CC1)c(=O)n2CC1CCC1` [Example 17, 1-(Cyclobutylmethyl)-3-cyclopropyl-5-methyl-6-[(2-oxoimidazolidin-1-yl)methyl]thieno[2,3-d]pyrimidine-2,4(1H,3H)-dione], 4.1 nM.

Take `CCCCn1c(=O)n(C2CC2)c(=O)c2c(C)c(CN3CCNC3=O)sc21` [Example 3, 1-Butyl-3-cyclopropyl-5-methyl-6-[(2-oxoimidazolidin-1-yl)methyl]thieno[2,3-d]pyrimidine-2,4(1H,3H)-dione]: the IC50 is 6.9 nM. `Cc1c(Cn2nc[nH]c2=O)sc2c1c(=O)n(C1CC1)c(=O)n2CC1CCCO1` (racemic) [Example 49, 3-Cyclopropyl-5-methyl-6-[(5-oxo-4,5-dihydro-1H-1,2,4-triazol-1-yl)methyl]-1-(tetrahydrofuran-2-ylmethyl)thieno[2,3-d]pyrimidine-2,4(1H,3H)-dione]: the IC50 is 110 nM.

In the case of `COCCn1c(=O)n(C2CC2(C)C)c(=O)c2c(C)c(CN3CCNC3=O)sc21` (single isomer, unassigned) [Example 105, 3-(2,2-Dimethylcyclopropyl)-1-(2-methoxyethyl)-5-methyl-6-[(2-oxoimidazolidin-1-yl)methyl]thieno[2,3-d]pyrimidine-2,4(1H,3H)-dione], the IC50 was 92 nM. In the case of `Cc1c(CN2CCNC2=O)sc2c1c(=O)n(C1(C)CC1)c(=O)n2CC1CC1(F)F` (racemic) [Example 63, 1-[(2,2-Difluorocyclopropyl)methyl]-5-methyl-3-(1-methylcyclopropyl)-6-[(2-oxoimidazolidin-1-yl)methyl]thieno[2,3-d]pyrimidine-2,4(1H,3H)-dione] it was 12 nM; in that of `Cc1c(CN2CCNC2=O)sc2c1c(=O)n(C1(C)CC1)c(=O)n2C[C@H]1CCCO1` [Example 81, 5-Methyl-3-(1-methylcyclopropyl)-6-[(2-oxoimidazolidin-1-yl)methyl]-1-[(2R)-tetrahydrofuran-2-ylmethyl]thieno[2,3-d]pyrimidine-2,4(1H,3H)-dione], 39 nM.

Turning to `Cc1c(Cn2nc[nH]c2=O)sc2c1c(=O)n(C1CC1)c(=O)n2CCCCF` [Example 198, 3-Cyclopropyl-1-(4-fluorobutyl)-5-methyl-6-[(5-oxo-4,5-dihydro-H-1,2,4-triazol-1-yl)methyl]thieno[2,3-d]pyrimidine-2,4(1H,3H)-dione], the IC50 was 190 nM. With `COCCn1c(=O)n(C2(C(F)(F)F)CC2)c(=O)c2c(C)c(Cn3nc[nH]c3=O)sc21` [Example 89, 1-(2-Methoxyethyl)-5-methyl-6-[(5-oxo-4,5-dihydro-1H-1,2,4-triazol-1-yl)methyl]-3-[1-(trifluoromethyl)cyclopropyl]thieno[2,3-d]pyrimidine-2,4(1H,3H)-dione] the figure was 1200 nM; with `COCCn1c(=O)n(C2CC2(C)C)c(=O)c2c(C)c(CN3CCNC3=O)sc21` (single isomer, unassigned) [Example 104, 3-(2,2-Dimethylcyclopropyl)-1-(2-methoxyethyl)-5-methyl-6-[(2-oxoimidazolidin-1-yl)methyl]thieno[2,3-d]pyrimidine-2,4(1H,3H)-dione], 35 nM; with `COC(=O)N=C1NCCN1Cc1sc2c(c1C)c(=O)n(C1CC(F)(F)C1)c(=O)n2CCC(F)(F)F` [Example 122, Methyl [1-{[3-(3,3-difluorocyclobutyl)-5-methyl-2,4-dioxo-1-(3,3,3-trifluoropropyl)-1,2,3,4-tetrahydrothieno[2,3-d]pyrimidin-6-yl]methyl}imidazolidin-2-ylidene]carbamate], 4.2 nM.

For the molecule `Cc1c(CN2CCNC(=O)C2=O)sc2c1c(=O)n(C1(C)CCC1)c(=O)n2CCC(F)(F)F` [Example 137, 6-[(2,3-Dioxopiperazin-1-yl)methyl]-5-methyl-3-(1-methylcyclobutyl)-1-(3,3,3-trifluoropropyl)thieno[2,3-d]pyrimidine-2,4(1H,3H)-dione], the IC50 is 77 nM. In the case of `COC(=O)N=C1NCCN1Cc1sc2c(c1C)c(=O)n(C1CCCC1)c(=O)n2CCC(F)(F)F` [Example 186, Methyl [1-{[3-cyclopentyl-5-methyl-2,4-dioxo-1-(3,3,3-trifluoropropyl)-1,2,3,4-tetrahydrothieno[2,3-d]pyrimidin-6-yl]methyl}imidazolidin-2-ylidene]carbamate] it was 7.9 nM; in that of `Cc1c(Cn2nc[nH]c2=O)sc2c1c(=O)n(C1CC(F)(F)C1)c(=O)n2CCC(F)(F)F` [Example 124, 3-(3,3-Difluorocyclobutyl)-5-methyl-6-[(5-oxo-4,5-dihydro-H-1,2,4-triazol-1-yl)methyl]-1-(3,3,3-trifluoropropyl)thieno[2,3-d]pyrimidine-2,4(1H,3H)-dione], 26 nM.
